In the oligonucleotide strings, read from the 5' end, every base follows the letter of its sugar. An asterisk marks phosphorothioate; unmarked linkages are phosphodiester. Other units and linkages are bracketed, terminal groups are in braces. A string of capitals states the bases alone. e = 2'-O-(2-methoxyethyl) (MOE); [5mC] = 5-methylcytosine; d = 2'-deoxy (DNA)
Columns and labels:
[1] = system: murine IL-5 receptor α mRNA, membrane form; test: Membrane IL-5 receptor α mRNA by Northern blot in BCL1 cells; format: cell-based, mouse; settings: for % control membrane IL-5 Rα / % inhib'n membrane IL-5 Rα: 24 hours, uniform 2′-MOE
From the text: (§1) Murine BCL1 cells were chosen for screening antisense oligonucleotides targeted to murine IL-5 receptor α. These are B-cell leukemia cells derived from a spontaneously arising tumor of BALB/c origin, and proliferate in response to murine or human IL-5. This is a CD5+line which resembles a subset of human chronic lymphocytic leukemia tumors and secretes IgM upon lipopolysaccharide stimulation. Cells were obtained from the American Type Culture Collection and cultured in RPMI 1640 medium supplemented with 10% heat-inactivated fetal bovine serum (Sigma Chemical Co., St. Louis, Mo.), 10 mM Hepes, pH 7.2, 50 μM 2-ME, 2 mM L-glutamine, 100 U/ml penicillin and 100 μg/ml streptomycin (Gibco, Grand Island, N.Y.).
(§2) The effect of these compounds on both membrane and soluble forms of murine IL-5 receptor α were measured and are shown in Table 1B. Oligonucleotides were screened in BCL1 cells at a dose of 10 μM and IL-5 receptor α mRNA was measured by Northern blot. Percent inhibition is compared to untreated (no oligo) control.
(§3) Total BCL1 cellular RNA was isolated using the RNeasy™ kit (Qiagen, Santa Clara Calif.) . Northern blotting was performed using standard methods. The cDNA probes were generated from oligonucleotides matching the exon sequences of either exons 2, 8, 9 or 10. Signals were quantitated using a Molecular Dynamics PhosphorImager.

[2] = system: murine IL-5 receptor α mRNA, soluble form; test: Soluble IL-5 receptor α mRNA by Northern blot in BCL1 cells; format: cell-based, mouse; settings: for % control soluble IL-5 Rα: BCL1 cells, 10 μM, 24 hours, uniform 2′-MOE
From the text: as §1, §2, §3

[3] = system: Human IL-5 receptorα membrane form mRNA; test: Human IL-5 receptorα membrane form mRNA expression (18 hr); format: cell-based; parameters: % INHIB'N, human IL-5 receptorα membrane form mRNA / % of CONTROL, human IL-5 receptorα membrane form mRNA: concentration or dose not given beside the values; settings: 18 hr
From the text: mRNA transcripts encoding the membrane form of the human IL-5 receptorα contain exons 1-10 and 12-14. Exon 11 is spliced out. It is, therefore, possible to target sequences in exons 1-10 which are common to both soluble and membrane forms of the receptor, or to selectively target sequences only present in the membrane form (exons 12-14). Oligonucleotides were also designed to target various intron/exon boundaries downstream of exon 11, with the intention of preventing successful splicing out of exon 11 and thus redirecting splice products away from the membrane form and in favor of the soluble form of IL-5 receptorα.
(§4) A series of oligonucleotides were designed to target various splice sites or (intron-exon boundaries) in the IL-5 receptor mRNA.

[4] = system: Human IL-5 receptorα; test: Human IL-5 receptorα protein expression on the cell surface (36 hr), TF-1 cells; format: cell-based; parameters: % INHIB, human IL-5 receptorα protein on the cell surface / % of CONTROL, human IL-5 receptorα protein on the cell surface: concentration or dose not given beside the values; settings: for % INHIB, human IL-5 receptorα protein on the cell surface / % of CONTROL, human IL-5 receptorα protein on the cell surface: 36 hr
From the text: as §4
ISIS 16746, 16748, 16755 and 16758 inhibited human IL-5 receptorα protein by over 50% in this assay and are therefore preferred. ISIS 16758 and 16755 were chosen for further study.

[5] = 10 μM dose, exon-exon boundary oligonucleotides

Substance: 21751 (e[5mC]*eA*eA*eG*eG*eA*e[5mC]*eT*eT*e[5mC]*e[5mC]*eT*eT*eT*e[5mC]*e[5mC]*eT*eT*eT*e[5mC]; splice-switching) [compound 21751]
- % control membrane IL-5 Rα ([1]; BCL1 cells, 10 μM): 9%
- % inhib'n membrane IL-5 Rα ([1]; BCL1 cells, 10 μM): 91%
- % control soluble IL-5 Rα [2]: 191%

Substance: 21760 (e[5mC]*eT*eA*e[5mC]*eA*e[5mC]*eT*e[5mC]*eT*eG*e[5mC]*eA*eG*eA*eT*eG*eA*eG*eT*eG) [compound 21760]
- % control membrane IL-5 Rα ([1]; BCL1 cells, 10 μM): 55%
- % inhib'n membrane IL-5 Rα ([1]; BCL1 cells, 10 μM): 45%
- % control soluble IL-5 Rα [2]: 116%

Substance: ISIS 18002: GCCATTCTACCAAGGACTTC, SEQ ID 2; 2′-MOE gapmer, mouse IL-5R exon 9 (listed as DNA, chemistry not fully specified)
- % inhibition of membrane IL-5 Rα ([1]; BCL1 cells, 10 μM, Northern blot, compared to untreated control, 2′-MOE gapmers): inhibitor of both forms of IL-5 receptorα

Substance: 16748 (antisense ACCCAGCTTTCTGCAAAACA; listed as DNA, chemistry not fully specified) [compound 16748]
- % INHIB'N, human IL-5 receptorα membrane form mRNA [3]: 75%
- % of CONTROL, human IL-5 receptorα membrane form mRNA [3]: 25%
- % INHIB, human IL-5 receptorα protein on the cell surface [4]: 59.5%
- % of CONTROL, human IL-5 receptorα protein on the cell surface [4]: 40.5%

Substance: 21849 (e[5mC]*eT*eT*eT*e[5mC]*e[5mC]*eT*eT*eT*e[5mC]*e[5mC]*e[5mC]*eA*e[5mC]*eA*eT*eA*eA*eA*eT) [compound 21849]
- % INHIB'N MEMBRANE IL-5 RECEPTOR [1, 5]: 70%
- % INHIB'N SOLUBLE IL-5 RECEPTOR [2, 5]: 5%

Substance: 16747 (antisense ACCCAGCTTTCTGCAAAACA; listed as DNA, chemistry not fully specified) [compound 16747]
- % INHIB'N, human IL-5 receptorα membrane form mRNA [3]: 34%
- % of CONTROL, human IL-5 receptorα membrane form mRNA [3]: 66%
- % INHIB, human IL-5 receptorα protein on the cell surface [4]: 19.5%
- % of CONTROL, human IL-5 receptorα protein on the cell surface [4]: 80.5%

Substance: ISIS 16748: ACCCAGCTTTCTGCAAAACA, SEQ ID 31; human IL-5R I13/E14; 2′-MOE pattern not visible (antisense eA*e[5mC]*e[5mC]*e[5mC]*eA*dG*dC*dT*dT*dT*dC*dT*dG*dC*dA*eA*eA*eA*e[5mC]*eA)
- % INHIB'N, human IL-5 receptorα membrane form mRNA [3]: over 50%
- % INHIB, human IL-5 receptorα protein on the cell surface [4]: over 50%

Substance: 16756 (antisense dG*dA*dA*dC*dA*dC*dT*dT*dA*dC*eA*eT*eT*eT*eT*eA*e[5mC]*eA*eG*eA) [compound 16756]
- % INHIB'N, human IL-5 receptorα membrane form mRNA [3]: 4%
- % of CONTROL, human IL-5 receptorα membrane form mRNA [3]: 96%
- % of CONTROL, human IL-5 receptorα protein on the cell surface [4]: 101%

Substance: 16751 (antisense eT*e[5mC]*eA*eA*e[5mC]*dA*dT*dT*dA*dC*dC*dT*dC*dA*dT*eA*eG*eT*eT*eA) [compound 16751]
- % INHIB'N, human IL-5 receptorα membrane form mRNA [3]: 4%
- % of CONTROL, human IL-5 receptorα membrane form mRNA [3]: 96%
- % of CONTROL, human IL-5 receptorα protein on the cell surface [4]: 101%

Substance: 16760 (antisense eT*e[5mC]*eA*eT*e[5mC]*dA*dT*dT*dT*dC*dC*dT*dG*dG*dT*eG*eG*eA*eA*eA) [compound 16760]
- % INHIB'N, human IL-5 receptorα membrane form mRNA [3]: 24%
- % of CONTROL, human IL-5 receptorα membrane form mRNA [3]: 76%
- % INHIB, human IL-5 receptorα protein on the cell surface [4]: 29%
- % of CONTROL, human IL-5 receptorα protein on the cell surface [4]: 71%

Substance: ISIS 18009: TCATCATTTACTGGTGGAAA, SEQ ID 36; mismatch of 16758 (antisense eT*e[5mC]*eA*eT*e[5mC]*eA*eT*eT*eT*eA*e[5mC]*eT*eG*eG*eT*eG*eG*eA*eA*eA) [reference compound]
- IC50 ([4]; TF-1 cells, read-out: IC50 for reduction of IL-5 receptorα cell surface protein): 10 µM

Substance: 16759 (antisense dT*dC*dA*dT*dC*dA*dT*dT*dT*dC*e[5mC]*eT*eG*eG*eT*eG*eG*eA*eA*eA) [compound 16759]
- % INHIB'N, human IL-5 receptorα membrane form mRNA [3]: 19%
- % of CONTROL, human IL-5 receptorα membrane form mRNA [3]: 81%
- % INHIB, human IL-5 receptorα protein on the cell surface [4]: 24.5%
- % of CONTROL, human IL-5 receptorα protein on the cell surface [4]: 75.5%

Substance: 16753 (antisense dT*dA*dA*dA*dT*dG*dA*dC*dA*dT*e[5mC]*eT*eG*eA*eA*eA*eA*e[5mC]*eA*eG) [compound 16753]
- % INHIB'N, human IL-5 receptorα membrane form mRNA [3]: 2%
- % of CONTROL, human IL-5 receptorα membrane form mRNA [3]: 98%
- % INHIB, human IL-5 receptorα protein on the cell surface [4]: 4%
- % of CONTROL, human IL-5 receptorα protein on the cell surface [4]: 96%

Substance: 16749 (antisense eT*e[5mC]*eA*eA*e[5mC]*eA*eT*eT*eA*e[5mC]*e[5mC]*eT*e[5mC]*eA*eT*eA*eG*eT*eT*eA) [compound 16749]
- % of CONTROL, human IL-5 receptorα membrane form mRNA [3]: 101%
- % INHIB, human IL-5 receptorα protein on the cell surface [4]: 25%
- % of CONTROL, human IL-5 receptorα protein on the cell surface [4]: 75%

Substance: 16750 (antisense dT*dC*dA*dA*dC*dA*dT*dT*dA*dC*e[5mC]*eT*e[5mC]*eA*eT*eA*eG*eT*eT*eA) [compound 16750]
- % INHIB'N, human IL-5 receptorα membrane form mRNA [3]: 4%
- % of CONTROL, human IL-5 receptorα membrane form mRNA [3]: 96%
- % INHIB, human IL-5 receptorα protein on the cell surface [4]: 9%
- % of CONTROL, human IL-5 receptorα protein on the cell surface [4]: 91%

Substance: 16746 (antisense eA*e[5mC]*e[5mC]*e[5mC]*eA*eG*e[5mC]*eT*eT*eT*e[5mC]*eT*eG*e[5mC]*eA*eA*eA*eA*e[5mC]*eA) [compound 16746]
- % INHIB'N, human IL-5 receptorα membrane form mRNA [3]: 64%
- % of CONTROL, human IL-5 receptorα membrane form mRNA [3]: 36%
- % INHIB, human IL-5 receptorα protein on the cell surface [4]: 65%
- % of CONTROL, human IL-5 receptorα protein on the cell surface [4]: 35%

Substance: 16754 (antisense eT*eA*eA*eA*eT*dG*dA*dC*dA*dT*dC*dT*dG*dA*dA*eA*eA*e[5mC]*eA*eG) [compound 16754]
- % of CONTROL, human IL-5 receptorα membrane form mRNA [3]: 101%
- % of CONTROL, human IL-5 receptorα protein on the cell surface [4]: 100.5%

Substance: ISIS 16746: ACCCAGCTTTCTGCAAAACA, SEQ ID 31; human IL-5R I13/E14; 2′-MOE pattern (bold) not visible (antisense eA*e[5mC]*e[5mC]*e[5mC]*eA*eG*e[5mC]*eT*eT*eT*e[5mC]*eT*eG*e[5mC]*eA*eA*eA*eA*e[5mC]*eA)
- % INHIB'N, human IL-5 receptorα membrane form mRNA [3]: over 50%
- % INHIB, human IL-5 receptorα protein on the cell surface [4]: over 50%

Substance: 16752 (antisense eT*eA*eA*eA*eT*eG*eA*e[5mC]*eA*eT*e[5mC]*eT*eG*eA*eA*eA*eA*e[5mC]*eA*eG) [compound 16752]
- % of CONTROL, human IL-5 receptorα membrane form mRNA [3]: 101%
- % of CONTROL, human IL-5 receptorα protein on the cell surface [4]: 100.5%

Substance: 16755 (antisense eG*eA*eA*e[5mC]*eA*e[5mC]*eT*eT*eA*e[5mC]*eA*eT*eT*eT*eT*eA*e[5mC]*eA*eG*eA) [compound 16755]
- % INHIB'N, human IL-5 receptorα membrane form mRNA [3]: 84%
- % of CONTROL, human IL-5 receptorα membrane form mRNA [3]: 15.5%
- % INHIB, human IL-5 receptorα protein on the cell surface [4]: 89.5%
- % of CONTROL, human IL-5 receptorα protein on the cell surface [4]: 10.5%

Substance: 16757 (antisense eG*eA*eA*e[5mC]*eA*dC*dT*dT*dA*dC*dA*dT*dT*dT*dT*eA*e[5mC]*eA*eG*eA) [compound 16757]
- % INHIB'N, human IL-5 receptorα membrane form mRNA [3]: 9%
- % of CONTROL, human IL-5 receptorα membrane form mRNA [3]: 91%
- % INHIB, human IL-5 receptorα protein on the cell surface [4]: 19%
- % of CONTROL, human IL-5 receptorα protein on the cell surface [4]: 81%

Substance: ISIS 18011: TCAGCAGTTACTTGTGTAAA, SEQ ID 38; 5-mismatch for 16758 (antisense eT*e[5mC]*eA*eG*e[5mC]*eA*eG*eT*eT*eA*e[5mC]*eT*eT*eG*eT*eG*eT*eA*eA*eA) [reference compound]
- inhibition of IL-5 receptorα expression (mismatch controls) ([4]; TF-1 cells): did not inhibit

Substance: ISIS 18010: TCAGCATTTACTGGTGTAAA, SEQ ID 37; mismatch of 16758 (antisense eT*e[5mC]*eA*eG*e[5mC]*eA*eT*eT*eT*eA*e[5mC]*eT*eG*eG*eT*eG*eT*eA*eA*eA) [reference compound]
- inhibition of IL-5 receptorα expression (mismatch controls) ([4]; TF-1 cells): did not inhibit

Reference: patent publication US20020049173A1, “Alteration of cellular behavior by antisense modulation of mRNA processing” (priority 1999, published 2002)
